# Source: the NIST ThermoML archive (doi:10.1021/acs.jced.5b00724)
# Where “and” joins values, the source holds several entries; their conditions need not be identical. Equal entries are not always repeated. ± gives the expanded uncertainty stated by the source.
# Key:
# [1] = 350.12 K; Liquid; Closed cell (Static) method
# [2] = refractive index (Na D-line) (dimensionless); conditions: 298.15 K; 101.33 kPa; Liquid; Standard Abbe refractometry
# [3] = wn = mass fraction of the nth substance listed; conditions: 298.1 K, Liquid, Vibrating tube method
# [4] = excess molar enthalpy (molar enthalpy of mixing); xn = mol fraction of the nth substance listed; conditions: 130 kPa, Liquid, Calvet calorimetry
smiles,measurement,setting,value
O [water],vapor or sublimation pressure,[1],41.9 ± 0.2 kPa
same,refractive index,[2],1.3325 ± 0.0008
CC1CCC(=O)O1 (stereo not drawn) [γ-valerolactone] + O,mass density,"[3]; 107 kPa, w2 = 0",1048.8 ± 0.8 kg/m3
same,mass density,"[3]; 107 kPa, w2 = 0.1004",1047 ± 0.8 kg/m3
same,mass density,"[3]; 107 kPa, w2 = 0.2005",1044.9 ± 0.8 kg/m3
same,mass density,"[3]; 107 kPa, w2 = 0.3025",1041.7 ± 0.8 kg/m3
same,mass density,"[3]; 107 kPa, w2 = 0.4",1037.6 ± 0.8 kg/m3
same,mass density,"[3]; 107 kPa, w2 = 0.5",1032.9 ± 0.8 kg/m3
same,mass density,"[3]; 107 kPa, w2 = 0.6",1027.1 ± 0.8 kg/m3
same,mass density,"[3]; 108 kPa, w2 = 0.6999",1021.1 ± 0.8 kg/m3
same,mass density,"[3]; 109 kPa, w2 = 0.7999",1013.8 ± 0.8 kg/m3
same,mass density,"[3]; 109 kPa, w2 = 0.8997",1005.5 ± 0.8 kg/m3
same,excess molar enthalpy,"[4]; 303.2 K, x2 = 0.097",0.124 ± 0.0129 kcal/mol
same,excess molar enthalpy,"[4]; 303.2 K, x2 = 0.203",0.197 ± 0.0208 kcal/mol
same,excess molar enthalpy,"[4]; 303.2 K, x2 = 0.303",0.222 ± 0.0225 kcal/mol
same,excess molar enthalpy,"[4]; 303.2 K, x2 = 0.4",0.217 ± 0.022 kcal/mol
same,excess molar enthalpy,"[4]; 303.2 K, x2 = 0.514",0.194 ± 0.0198 kcal/mol
same,excess molar enthalpy,"[4]; 303.2 K, x2 = 0.601",0.15 ± 0.0158 kcal/mol
same,excess molar enthalpy,"[4]; 303.2 K, x2 = 0.7",0.107 ± 0.011 kcal/mol
same,excess molar enthalpy,"[4]; 303.2 K, x2 = 0.801",0.0581 ± 0.00598 kcal/mol
same,excess molar enthalpy,"[4]; 303.2 K, x2 = 0.841",0.0387 ± 0.0043 kcal/mol
same,excess molar enthalpy,"[4]; 303.2 K, x2 = 0.894",0.0127 ± 0.00167 kcal/mol
same,excess molar enthalpy,"[4]; 303.2 K, x2 = 0.9",0.0103 ± 0.00215 kcal/mol
same,excess molar enthalpy,"[4]; 303.2 K, x2 = 0.914",0.00308 kcal/mol and 0.00239 kcal/mol
same,excess molar enthalpy,"[4]; 303.2 K, x2 = 0.93",-0.00437 ± 0.000956 kcal/mol
same,excess molar enthalpy,"[4]; 303.2 K, x2 = 0.946",-0.0098 ± 0.0012 kcal/mol
same,excess molar enthalpy,"[4]; 303.2 K, x2 = 0.9815",-0.0182 ± 0.00191 kcal/mol
same,excess molar enthalpy,"[4]; 303.2 K, x2 = 0.9906",-0.0103 ± 0.0012 kcal/mol
same,excess molar enthalpy,"[4]; 303.2 K, x2 = 0.9962",-0.00416 ± 0.000837 kcal/mol
same,excess molar enthalpy,"[4]; 303.2 K, x2 = 0.9981",-0.0021 ± 0.000741 kcal/mol
same,excess molar enthalpy,"[4]; 322.6 K, x2 = 0.204",0.207 ± 0.0055 kcal/mol
same,excess molar enthalpy,"[4]; 322.6 K, x2 = 0.401",0.249 ± 0.00645 kcal/mol
same,excess molar enthalpy,"[4]; 322.6 K, x2 = 0.503",0.232 ± 0.00621 kcal/mol
same,excess molar enthalpy,"[4]; 322.6 K, x2 = 0.602",0.197 kcal/mol
same,excess molar enthalpy,"[4]; 322.6 K, x2 = 0.7",0.152 ± 0.00454 kcal/mol
same,excess molar enthalpy,"[4]; 322.6 K, x2 = 0.801",0.097 ± 0.00335 kcal/mol
same,excess molar enthalpy,"[4]; 322.6 K, x2 = 0.9",0.0402 ± 0.00263 kcal/mol
same,excess molar enthalpy,"[4]; 322.6 K, x2 = 0.95",0.0116 ± 0.00234 kcal/mol
